The values below come from patent publication US10626112B2, “Heterocyclic sulfonamide derivative and medicine comprising same” (EA PHARMA CO., LTD., priority 2014, dated 2020).

The structures appear in SMILES notation.

Chain of human TRPA1 (O75762 whole entry): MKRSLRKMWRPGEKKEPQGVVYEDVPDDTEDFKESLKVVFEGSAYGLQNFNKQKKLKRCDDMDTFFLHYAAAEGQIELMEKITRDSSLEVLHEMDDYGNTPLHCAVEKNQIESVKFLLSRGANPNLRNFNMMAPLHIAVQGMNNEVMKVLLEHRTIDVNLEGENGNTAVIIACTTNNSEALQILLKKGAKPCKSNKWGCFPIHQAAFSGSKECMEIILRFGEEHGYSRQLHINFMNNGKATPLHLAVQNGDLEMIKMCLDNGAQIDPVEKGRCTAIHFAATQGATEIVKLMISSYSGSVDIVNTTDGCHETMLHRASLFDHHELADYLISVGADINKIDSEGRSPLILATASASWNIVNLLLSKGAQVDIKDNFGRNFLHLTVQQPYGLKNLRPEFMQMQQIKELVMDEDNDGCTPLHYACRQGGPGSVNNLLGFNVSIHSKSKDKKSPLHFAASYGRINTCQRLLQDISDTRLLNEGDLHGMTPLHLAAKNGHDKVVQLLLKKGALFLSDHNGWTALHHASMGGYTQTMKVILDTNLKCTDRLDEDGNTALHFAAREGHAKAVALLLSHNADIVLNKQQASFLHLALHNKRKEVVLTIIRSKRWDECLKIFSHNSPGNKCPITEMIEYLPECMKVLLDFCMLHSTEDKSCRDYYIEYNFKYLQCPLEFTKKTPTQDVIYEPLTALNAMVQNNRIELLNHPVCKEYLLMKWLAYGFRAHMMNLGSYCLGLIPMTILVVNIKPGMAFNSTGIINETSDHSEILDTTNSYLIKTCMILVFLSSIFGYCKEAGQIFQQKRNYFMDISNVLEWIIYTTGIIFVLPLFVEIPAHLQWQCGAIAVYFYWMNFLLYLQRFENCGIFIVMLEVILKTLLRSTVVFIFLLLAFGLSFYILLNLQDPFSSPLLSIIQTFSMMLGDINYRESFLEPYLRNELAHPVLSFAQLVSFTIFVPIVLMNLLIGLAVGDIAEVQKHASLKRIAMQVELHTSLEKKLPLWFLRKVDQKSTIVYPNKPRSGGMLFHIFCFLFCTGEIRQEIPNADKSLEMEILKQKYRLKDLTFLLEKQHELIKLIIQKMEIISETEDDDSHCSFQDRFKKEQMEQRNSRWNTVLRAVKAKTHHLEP

For the test, the target named is human TRPA1 (Homo sapiens (Human), UniProt O75762). Description: Measurement of TRPA1 antagonist activity (1): intracellular calcium increase. The format is cell-based. Particulars: 293T cells transfected with human TRPA1 expression plasmid; allylisothiocyanate 20 μM stimulation; intracellular calcium fluorescence; read-out: hTRPA1 IC50. The essentials:
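HEK293T cells transiently transfected with full-length human TRPA1, loaded with Calcium4 dye in HBSS/20 mM HEPES pH 7.2. Test compound preincubated 10 min, then allylisothiocyanate added at 20 μM final and fluorescence change followed for 5 min. IC50 from sigmoid fit of percent inhibition relative to agonist and buffer controls.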
(Calcium flux is commonly read through the fluorescence of an indicator in the cells.)
The term IC50 denotes the point on the concentration scale where inhibition reaches its midpoint. For `O=C(NCc1cccc(-c2ccc(N3CCCC3)nc2)c1)[C@@H]1CCCN1S(=O)(=O)c1cc2cc(F)ccc2o1` [Example 160, (2S)-1-(5-fluorobenzofuran-2-yl)sulfonyl-N-[[3-(6-pyrrolidin-1-yl-3-pyridyl)phenyl]methyl]-pyrrolidine-2-carboxamide], the IC50 is 19 nM.
Take `O=C(NCc1cccc(-c2ccc(N3CCOCC3)nc2)c1)[C@@H]1CCCN1S(=O)(=O)c1cc2cc(F)ccc2o1` [Example 161, (2S)-1-(5-fluorobenzofuran-2-yl)sulfonyl-N-[[3-(6-morpholino-3-pyridyl)phenyl]methyl]-pyrrolidine-2-carboxamide]: the IC50 stood at 27 nM.
For `CNC(=O)c1ccc(-c2cccc(CNC(=O)[C@@H]3CCCN3S(=O)(=O)c3cc4cc(F)ccc4o3)c2)cn1` [Example 162, 5-[3-[[[(2S)-1-(5-fluorobenzofuran-2-yl)sulfonylpyrrolidine-2-carbonyl]amino]methyl]phenyl]-N-methyl-pyridine-2-carboxamide], the concentration for half-maximal inhibition (IC50) stood at 51 nM.
As for `N#Cc1cncc(-c2cccc(CNC(=O)[C@@H]3CCCN3S(=O)(=O)c3cc4cc(F)ccc4o3)c2)c1` [Example 163, (2S)-N-[[3-(5-cyano-3-pyridyl)phenyl]methyl]-1-(5-fluorobenzofuran-2-yl)sulfonyl-pyrrolidine-2-carboxamide], the IC50 turned out to be 31 nM.
Take `O=C(NCc1ccc(-c2ccc(C(F)(F)F)cc2)cc1)[C@@H]1CCCN1S(=O)(=O)c1cc2ccccc2o1` [Example 165, (2S)-1-(benzofuran-2-ylsulfonyl)-N-[[4-[4-(trifluoromethyl)phenyl]-phenyl]methyl]pyrrolidine-2-carboxamide]: the IC50 is 190 nM.
On to `O=C(NCc1ccc(-c2cccc(C(F)(F)F)c2)cc1)[C@@H]1CCCN1S(=O)(=O)c1cc2ccccc2o1` [Example 166, (2S)-1-(benzofuran-2-ylsulfonyl)-N-[[4-[3-(trifluoromethyl)phenyl]-phenyl]methyl]pyrrolidine-2-carboxamide], for which the IC50 stood at 260 nM.
Regarding `O=C(NCc1ccc(-c2ccccc2C(F)(F)F)cc1)[C@@H]1CCCN1S(=O)(=O)c1cc2ccccc2o1` [Example 167, (2S)-1-(benzofuran-2-ylsulfonyl)-N-[[4-[2-(trifluoromethyl)phenyl]-phenyl]methyl]pyrrolidine-2-carboxamide], the IC50 was 140 nM.
Take `O=C(NCc1ccc(-c2ccc(F)cc2)cc1)[C@@H]1CCCN1S(=O)(=O)c1cc2ccccc2o1` [Example 168, (2S)-1-(benzofuran-2-ylsulfonyl)-N-[[4-(4-fluorophenyl)phenyl]methyl]-pyrrolidine-2-carboxamide]: the IC50 was 180 nM.
For `O=C(NCc1ccc(-c2cccc(F)c2)cc1)[C@@H]1CCCN1S(=O)(=O)c1cc2ccccc2o1` [Example 169, (2S)-1-(benzofuran-2-ylsulfonyl)-N-[[4-(3-fluorophenyl)phenyl]methyl]-pyrrolidine-2-carboxamide] the value was 150 nM.
Regarding `N#Cc1ccc(-c2ccc(CNC(=O)[C@@H]3CCCN3S(=O)(=O)c3cc4ccccc4o3)cc2)cc1` [Example 170, (2S)-1-(benzofuran-2-ylsulfonyl)-N-[[4-(4-cyanophenyl)phenyl]methyl]-pyrrolidine-2-carboxamide], the half-maximal inhibitory concentration (IC50) amounted to 230 nM.
As for `N#Cc1cccc(-c2ccc(CNC(=O)[C@@H]3CCCN3S(=O)(=O)c3cc4ccccc4o3)cc2)c1` [Example 171, (2S)-1-(benzofuran-2-ylsulfonyl)-N-[[4-(3-cyanophenyl)phenyl]methyl]-pyrrolidine-2-carboxamide], the half-maximal inhibitory concentration (IC50) is 510 nM.
With `CN(C)c1ccc(-c2ccc(F)c(CNC(=O)[C@@H]3CCCN3S(=O)(=O)c3cc4ccccc4o3)c2)cn1` [Example 172, (2S)-1-(benzofuran-2-ylsulfonyl)-N-[[5-[6-(dimethylamino)-3-pyridyl]-2-fluoro-phenyl]methyl]pyrrolidine-2-carboxamide], the IC50 was 11 nM.
The figure for `O=C(NCc1cc(-c2cnc(C3CC3)nc2)ccc1F)[C@@H]1CCCN1S(=O)(=O)c1cc2ccccc2o1` [Example 173, (2S)-1-(benzofuran-2-ylsulfonyl)-N-[[5-(2-cyclopropylpyrimidin-5-yl)-2-fluoro-phenyl]methyl]pyrrolidine-2-carboxamide] is 17 nM.
In the case of `CN(C)c1ncc(-c2ccc(F)c(CNC(=O)[C@@H]3CCCN3S(=O)(=O)c3cc4ccccc4o3)c2)cn1` [Example 174, (2S)-1-(benzofuran-2-ylsulfonyl)-N-[[5-[2-(dimethylamino)pyrimidin-5-yl]-2-fluoro-phenyl]methyl]pyrrolidine-2-carboxamide], the IC50 was found to be 29 nM.
With `CN(C(=O)OC(C)(C)C)c1ccc(-c2ccc(F)c(CNC(=O)C3CCCN3S(=O)(=O)c3cc4ccccc4o3)c2)cn1` [Example 175, tert-butyl N-[5-[3-[[[(2S)-1-benzofuran-2-ylsulfonyl)pyrrolidine-2-carbonyl]amino]methyl]-4-fluoro-phenyl]-2-pyridyl]-N-methylcarbamate], the IC50 was 13 nM.
For `O=C(NCc1ccnc(-c2cc3ccccc3[nH]2)c1)[C@@H]1CCCN1S(=O)(=O)c1cc2ccccc2o1` [Example 176, (2S)-1-(benzofuran-2-ylsulfonyl)-N-[[2-(1H-indol-2-yl)-4-pyridyl]methyl]pyrrolidine-2-carboxamide] the value was 320 nM.
For `CNc1ccc(-c2ccc(F)c(CNC(=O)[C@@H]3CCCN3S(=O)(=O)c3cc4ccccc4o3)c2)cn1` [Example 177, (2S)-1-(benzofuran-2-ylsulfonyl)-N-[[2-fluoro-5-[6-(methylamino)-3-pyridyl]phenyl]methyl]pyrrolidine-2-carboxamide], the IC50 turned out to be 300 nM.
As for `O=C(NCc1ccnc(-c2ccc(C(F)(F)F)cn2)c1)[C@@H]1CCCN1S(=O)(=O)c1cc2ccccc2o1` [Example 178, (2S)-1-(benzofuran-2-ylsulfonyl)-N-[[2-[5-(trifluoromethyl)-2-pyridyl]-4-pyridyl]methyl]pyrrolidine-2-carboxamide], the half-maximal inhibitory concentration (IC50) is 46 nM.
On to `C[C@H](NS(=O)(=O)c1cc2ccccc2o1)C(=O)NCc1ccnc(-c2ccc(C(F)(F)F)cc2O)c1` [Example 180, (2S)-2-(benzofuran-2-ylsulfonylamino)-N-[[2-[2-hydroxy-4-(trifluoromethyl)phenyl]-4-pyridyl]methyl]propanamide], for which the IC50 turned out to be 69 nM.
The figure for `C[C@H](NS(=O)(=O)c1cc2cc(F)ccc2o1)C(=O)NCc1ccnc(-c2ccc(C(F)(F)F)cc2O)c1` [Example 181, (2S)-2-[(5-fluorobenzofuran-2-yl)sulfonylamino]-N-[[2-[2-hydroxy-4-(trifluoromethyl)phenyl]-4-pyridyl]methyl]propanamide] is 21 nM; for `C[C@H](NS(=O)(=O)c1cc2ccccc2o1)C(=O)NCc1cccc(OCc2ccc(C#N)cc2)c1` [Example 182, (2S)-2-(benzofuran-2-ylsulfonylamino)-N-[[3-[(4-cyanophenyl)methoxy]phenyl]methyl]propanamide] it is 94 nM.
For `C[C@H](NS(=O)(=O)c1cc2ccccc2o1)C(=O)NCc1cccc(OCC2CCOCC2)c1` [Example 183, (2S)-2-(benzofuran-2-ylsulfonylamino)-N-[[3-(tetrahydropyran-4-ylmethoxy)phenyl]methyl]propanamide], the IC50 worked out at 570 nM.
For `C[C@H](NS(=O)(=O)c1cc2cc(F)ccc2o1)C(=O)NCc1cccc(OCc2ccc(C#N)cc2)c1` [Example 184, (2S)-N-[[3-[(4-cyanophenyl)methoxy]phenyl]methyl]-2-[(5-fluorobenzofuran-2-yl)sulfonylamino]propanamide] the value was 41 nM; for `C[C@H](NS(=O)(=O)c1cc2cc(F)ccc2o1)C(=O)NCc1cccc(OCC2CCOCC2)c1` [Example 185, (2S)-2-[(5-fluorobenzofuran-2-yl)sulfonylamino]-N-[[3-(tetrahydropyran-4-ylmethoxy)phenyl]methyl]propanamide], 250 nM.
With `O=C(NCc1ccnc(NCc2ccc(C(F)(F)F)cc2)c1)[C@@H]1CCCN1S(=O)(=O)c1cc2ccccc2o1` [Example 186, (2S)-1-(benzofuran-2-ylsulfonyl)-N-[[2-[[4-(trifluoromethyl)phenyl]methylamino]-4-pyridyl]methyl]pyrrolidine-2-carboxamide], the IC50 amounted to 86 nM.
As to `O=C(NCc1cccc(OCc2ccc(C(F)(F)F)cc2)c1)[C@@H]1CC=CCN1S(=O)(=O)c1cc2ccccc2o1` [Example 187, (2S)-1-(benzofuran-2-ylsulfonyl)-N-[[3-[[4-(trifluoromethyl)phenyl]methoxy]phenyl]methyl]-3,6-dihydro-2H-pyridine-2-carboxamide], the IC50 is 71 nM.
With `O=C(NCc1cccc([S+]([O-])Cc2ccccc2)c1)[C@@H]1CCCN1S(=O)(=O)c1cc2ccccc2o1` (stereo partly drawn) [Example 188, (2S)-1-(benzofuran-2-ylsulfonyl)-N-[(3-benzylsulfinylphenyl)methyl]pyrrolidine-2-carboxamide], the IC50 is 890 nM.
With `CC(C)(C)OC[C@H](NS(=O)(=O)c1cc2cc(F)ccc2o1)C(=O)NCc1cccc(-c2ccc(C(F)(F)F)nc2)c1` [Example 189, (2S)-3-tert-butoxy-2-[(5-fluorobenzofuran-2-yl)sulfonylamino]-N-[[3-[6-trifluoromethyl-3-pyridyl]phenyl]methyl]propanamide], the IC50 worked out at 840 nM.
The figure for `C[C@H](NS(=O)(=O)c1cc2cc(F)ccc2o1)C(=O)NCc1cc(-c2ccc(OC(F)(F)F)cc2)ncn1` [Example 190, (2S)-2-[(5-fluorobenzofuran-2-yl)sulfonylamino]-N-[[6-[4-(trifluoromethoxy)phenyl]pyrimidin-4-yl]methyl]propanamide] is 5.2 nM; for `O=C(NCc1cc(-c2ncc(C(F)(F)F)cn2)ccn1)[C@@H]1CCCN1S(=O)(=O)c1cc2ccccc2o1` [Example 192, (2S)-1-(benzofuran-2-ylsulfonyl)-N-[[4-[5-(trifluoromethyl)pyrimidin-2-yl]-2-pyridyl]methyl]pyrrolidine-2-carboxamide] it is 22 nM.
